What was measured:
A549 cells = assay: Mitochondrial respiration (OCR) by Seahorse XF analyzer; type: cell-based, human; settings: 5 μM
Source text: As Ru5 is located in mitochondria and inhibits ATPase related to mitochondrial respiration, we then evaluated its impact on oxygen consumption rate (OCR) using the Seahorse XF analyzer. Ru5 inhibits ATP-linked respiration, basal respiration and maximal respiration capacity, and it also increases the proton leak and alters non-mitochondrial respiration (Fig. 2A and Fig. S43). Accordingly, Ru5 treatment leads to an increase in the opening of the mitochondrial permeability transition pore (MPTP) of A549 in a concentration-dependent manner (Fig. 2B). […] The colocalization of the fluorescence of dihydrorhodamine 123 (DHR-123) with MitoTracker Deep Red (MTDR) indicates ROS are mainly generated in mitochondria (Fig. 2E).
Figure 2. […] (A) Impact of Ru5 (5 μM) on mitochondrial respiration of A549 cells measured by Seahorse. The OCR was measured under basal conditions, and after the sequential addition of oligomycin (1 μM), carbonyl cyanide 4-(trifluoromethoxy)phenylhydrazone (FCCP, 0.8 μM) and a mixture of rotenone (0.5 μM) and antimycin A (0.5 μM, R&A). […] The cells were treated with Ru5 for 6 h and analyzed by flow cytometry. λex = 488 nm, λem = 520 ± 20 nm. (C) Impact of Ru5 (5 μM) on MMP measured by JC-1 staining. […]

[1] = system: human lung fibroblast-like (HLF) cells; assay: MTT antiproliferative assay, HLF; type: cell-based; settings: 72 h
Source text: (§1) Ru3–Ru9 also show a certain selectivity for cancer cells over normal cells, and Ru2, Ru3, Ru5 and Ru9 show higher selectivity index (SI) values than the other complexes.
(§2) PA-BPP was then used to confirm the molecular targets of Ru5 by modifying it with a ‘minimalist’ biorthogonal handle-containing photo-cross-linker. Through our structure–activity relationship analysis and comparison with other ruthenium complexes utilizing phen as the auxiliary ligands with similar coordination structures (using cisplatin as a control), we propose that the β-carboline ligands play an important role in antiproliferative activity. To maintain the binding characteristics of the β-carboline moiety with the targeted biomolecules, we linked the photo-cross-linker to one of the auxiliary ligands of Ru5.

[2] = system: lung adenocarcinoma (A549); assay: MTT antiproliferative assay, A549; type: cell-based, human; settings: 72 h
Source text: as §1, §2

IC50 [2]: 2.1 ± 0.8 µM
Structure (SMILES): F[P-](F)(F)(F)(F)F.F[P-](F)(F)(F)(F)F.[Ru+2].c1ccc2c(c1)[nH]c1c(-c3ncc[nH]3)nccc12.c1cnc2c(c1)ccc1cccnc12.c1cnc2c(c1)ccc1cccnc12 [Ru5]
ATP-linked respiration, basal respiration and maximal respiration capacity (OCR) (A549 cells): inhibits | IC50 [1]: 33.9 ± 0.2 µM

Source: PMC11304990, “Identification of mitochondrial ATP synthase as the cellular target of Ru-polypyridyl-β-carboline complexes by affinity-based protein profiling” (National Science Review, 2024)
